Test results taken from article PMC8759731, “Design, synthesis, and evaluation of novel coumarin-dithiocarbamate derivatives (IDs) as anti-colorectal cancer agents” (Journal of Enzyme Inhibition and Medicinal Chemistry, 2021).
Blank lines part the entries; values can stand above or below the molecule they belong to.

Key:
SW620 cells = experiment: MTS cell viability assay, SW620 cells; format: cell-based; conditions: Homo sapiens, SW-620, 10 μM, 72 h
Text: (§1) Human colorectal cancer cell lines including RKO, SW620 and SW480 were purchased from Chinese Academy of Sciences, a typical cell library culture preservation committee (Shanghai, China). Normal human colon epithelial cell line NCM460 was purchased from ATCC (Washington, DC, USA). RPMI-1640 medium (12633020), foetal bovine serum (FBS, 26170043), penicillin-streptomycin (10378016) and phosphate buffered saline (PBS, 70011044) were purchased from Gibco (Eggenstein, Germany). 5-Fluorouracil (5-FU, E0201010050, purity ≥98%) was purchased from Energy Chemical (Shanghai, China). Dimethyl sulfoxide (DMSO, 41639) was obtained from Sigma-Aldrich (St. Louis, MO). 3–(4,5-dimethylthiazol-2-yl)-5–(3-carboxymethoxyphenyl)-2–(4-sulfophenyl)-2H-tetrazolium (MTS, G1111) was purchased from Promega (Madison, WI, USA). All cell lines were cultured in RPMI-1640 medium supplemented with 10% FBS, penicillin (100 units/mL) and streptomycin ([…]) at 37 °C in a humidified atmosphere containing 5% CO2.
(§2) Cell viability was measured via MTS assay. RKO, SW620, SW480 and NCM460 cells were seeded in 96-well plates at a density of 5000 cells per well for 24 h. After treatment with the test compounds at indicated concentration for another 48 h or 72 h at 37 °C, MTS solution was added to each well and incubated for another 30 min at 37 °C. Then, the absorbance at 490 nm was measured by a BioTek Synergy H4 microplate Reader (Vermont, USA). The IC50 values were calculated with Graphpad 7.0 software packages.

[1] = MTS cell viability assay, NCM460 normal colon epithelial cells; format: cell-based, human; conditions: human, NCM460 normal colon epithelial cells, 10 μM
Text: as §1, §2

SW480 cells = experiment: MTS cell viability assay, SW480 cells; format: cell-based; conditions: Homo sapiens, 10 μM, 72 h
Text: as §1, §2

RKO cells = experiment: MTS cell viability assay, RKO cells; format: cell-based; conditions: Homo sapiens, 10 μM, 72 h
Text: as §1, §2

BRD4 (BD1) = target: T1, BRD4 (BD1) (Homo sapiens, UniProt O60885); experiment: HTRF assay BRD4 (BD1); format: binding; conditions: 10 μM, read-out: Inhibitory rate at 10 μM, BRD4 (BD1)
T1 construct: purchased Reaction Biology Corp. RD-11-157
Procedure: (§3) In brief, compounds were serially diluted in Echo plate according to the plate map and DMSO’s final fraction is 0.1%. Then, transferring compounds and DMSO to 384-well assay plate by Echo. After that, 2× Protein and Peptide Mix was added to the assay plate and 2× Detection Mix was then added to assay plate and shook for 30 s. After incubating the plate at room temperature for 1.5 h, the HTRF signals (Excitation wavelength at 340 nm, Emission wavelength at 615 & 665 nm) was read on EnVision (PerkinElmer, UK). (+)-JQ1 (BPS Bioscience, Cat. No. 27402) was used as a positive control. BRD4-1 (RD-11–157) and BRD4-2 (RD-11–158) were purchased from Reaction Biology Corp. (PENN, USA). For Curve fitting, the inhibition values was calculated in Excel using Equation (1): Inhibition %=(Max-Signal)/(Max-Min)*100, and the IC50 values was calculated in XL-Fit using Equation (2): Y = Bottom + (Top-Bottom)/(1+(IC50/X)[…]), Y is %inhibition and X is compound concentration.

BRD4 (BD2) = target: T2, BRD4 (BD2) (Homo sapiens, UniProt O60885); experiment: HTRF assay BRD4 (BD2); format: binding; conditions: read-out: Inhibitory rate at 10 μM, BRD4 (BD2)
T2 construct: purchased Reaction Biology Corp. RD-11-158
Procedure: as §3

Structure (SMILES): O=c1[nH]cc(F)c(=O)[nH]1 [5-FU, 5-Fluorouracil, reference compound]
viability at 10 µM (SW620 cells): 33.6% | viability at 48 h, 10 µM [1]: 80.4% | viability at 10 µM (SW480 cells): 43.9% | viability at 10 µM (RKO cells): 40.7%

Structure (SMILES): CN(C)C(=S)SCc1ccc2oc(=O)ccc2c1 [ID-1, (2-Oxo-2H-chromen-6-yl)methyl dimethylcarbamodithioate]
inhibition at 10 µM (BRD4 (BD1)): 2.2% | melting point: 151.6 to 152.5 °C | inhibition at 10 µM (BRD4 (BD2)): 1.5%

Structure (SMILES): CCN(CC)C(=S)SCc1ccc2oc(=O)ccc2c1 [ID-2, (2-Oxo-2H-chromen-6-yl)methyl diethylcarbamodithioate]
inhibition at 10 µM (BRD4 (BD1)): 4.3% | melting point: 100.1 to 101 °C | inhibition at 10 µM (BRD4 (BD2)): 5.1%

Structure (SMILES): CCCN(CCC)C(=S)SCc1ccc2oc(=O)ccc2c1 [ID-3, (2-Oxo-2H-chromen-6-yl)methyl dipropylcarbamodithioate]
inhibition at 10 µM (BRD4 (BD1)): 1.6% | melting point: 52.3 to 53.2 °C | inhibition at 10 µM (BRD4 (BD2)): 3.3%

Structure (SMILES): CCCCN(CCCC)C(=S)SCc1ccc2oc(=O)ccc2c1 [ID-4, (2-Oxo-2H-chromen-6-yl)methyl dibutylcarbamodithioate]
inhibition at 10 µM (BRD4 (BD1)): 4.2% | inhibition at 10 µM (BRD4 (BD2)): 3.1%

Structure (SMILES): O=c1ccc2cc(CSC(=S)N3CC(O)C3)ccc2o1 [ID-6, (2-Oxo-2H-chromen-6-yl)methyl 3-hydroxyazetidine-1-carbodithioate]
inhibition at 10 µM (BRD4 (BD1)): 15% | melting point: 137.8 to 138.7 °C | inhibition at 10 µM (BRD4 (BD2)): 8.7%

Structure (SMILES): CC(C)N1CCN(C(=S)SCc2ccc3oc(=O)ccc3c2)CC1 [ID-13, (2-Oxo-2H-chromen-6-yl)methyl 4-isopropylpiperazine-1-carbodithioate]
inhibition at 10 µM (BRD4 (BD1)): 14.4% | melting point: 73.6 to 74.5 °C | inhibition at 10 µM (BRD4 (BD2)): 10.8%

Structure (SMILES): CC(C)(C)N1CCN(C(=S)SCc2ccc3oc(=O)ccc3c2)CC1 [ID-14, (2-Oxo-2H-chromen-6-yl)methyl 4-(tert-butyl)piperazine-1-carbodithioate]
inhibition at 10 µM (BRD4 (BD1)): 12.8% | melting point: 159.4 to 160.3 °C | inhibition at 10 µM (BRD4 (BD2)): 16.6%

Structure (SMILES): O=c1ccc2cc(CSC(=S)N3CCN(CCO)CC3)ccc2o1 [ID-15, (2-Oxo-2H-chromen-6-yl)methyl 4–(2-hydroxyethyl)piperazine-1-carbodithioate]
inhibition at 10 µM (BRD4 (BD1)): 40.2% | melting point: 120.9 to 121.8 °C | inhibition at 10 µM (BRD4 (BD2)): 33.3%

Structure (SMILES): O=c1ccc2cc(CSC(=S)N3CCN(C4CCCCC4)CC3)ccc2o1 [ID-16, (2-Oxo-2H-chromen-6-yl)methyl 4-cyclohexylpiperazine-1-carbodithioate]
inhibition at 10 µM (BRD4 (BD1)): 20.1% | melting point: 106.9 to 107.8 °C | inhibition at 10 µM (BRD4 (BD2)): 12.9%

Structure (SMILES): O=c1ccc2cc(CSC(=S)N3CCN(c4ccc(O)cc4)CC3)ccc2o1 [ID-17, (2-Oxo-2H-chromen-6-yl)methyl 4–(4-hydroxyphenyl)piperazine-1-carbodithioate]
inhibition at 10 µM (BRD4 (BD1)): 39% | melting point: 195.5 to 196.4 °C | inhibition at 10 µM (BRD4 (BD2)): 27.7%

Structure (SMILES): N#Cc1ccc(N2CCN(C(=S)SCc3ccc4oc(=O)ccc4c3)CC2)cc1 [ID-18, (2-Oxo-2H-chromen-6-yl)methyl 4–(4-cyanophenyl)piperazine-1-carbodithioate]
inhibition at 10 µM (BRD4 (BD1)): 11.8% | melting point: 181.5 to 182.4 °C | inhibition at 10 µM (BRD4 (BD2)): 8.4%

Structure (SMILES): O=c1ccc2cc(CSC(=S)N3CCC(c4ccccc4)CC3)ccc2o1 [ID-19, (2-Oxo-2H-chromen-6-yl)methyl 4-phenylpiperidine-1-carbodithioate]
inhibition at 10 µM (BRD4 (BD1)): 6.5% | melting point: 115.6 to 116.5 °C | inhibition at 10 µM (BRD4 (BD2)): 3.2%

Structure (SMILES): CN1CCN(C2CCN(C(=S)SCc3ccc4oc(=O)ccc4c3)CC2)CC1 [ID-20, (2-Oxo-2H-chromen-6-yl)methyl 4–(4-methylpiperazin-1-yl)piperidine-1-carbodithioate]
inhibition at 10 µM (BRD4 (BD1)): 36.6% | melting point: 95 to 96 °C | inhibition at 10 µM (BRD4 (BD2)): 29.3%

Now from value to molecule:

inhibition at 10 µM (BRD4 (BD1)): 6.2% | melting point: 144 to 145 °C | inhibition at 10 µM (BRD4 (BD2)): 5.8%
Structure (SMILES): O=c1ccc2cc(CSC(=S)N3CCC3)ccc2o1 [ID-5, (2-Oxo-2H-chromen-6-yl)methyl azetidine-1-carbodithioate]

inhibition at 10 µM (BRD4 (BD1)): 9.2% | melting point: 110.2 to 111.1 °C | inhibition at 10 µM (BRD4 (BD2)): 7.1%
Structure (SMILES): O=c1ccc2cc(CSC(=S)N3CCCC3)ccc2o1 [ID-7, (2-Oxo-2H-chromen-6-yl)methyl pyrrolidine-1-carbodithioate]

inhibition at 10 µM (BRD4 (BD1)): 7.8% | melting point: 130.1 to 131 °C | inhibition at 10 µM (BRD4 (BD2)): 8.2%
Structure (SMILES): O=c1ccc2cc(CSC(=S)N3CCCCC3)ccc2o1 [ID-8, (2-Oxo-2H-chromen-6-yl)methyl piperidine-1-carbodithioate]

inhibition at 10 µM (BRD4 (BD1)): 6.3% | melting point: 72.6 to 73.5 °C | inhibition at 10 µM (BRD4 (BD2)): 5%
Structure (SMILES): O=c1ccc2cc(CSC(=S)N3CCCCCC3)ccc2o1 [ID-9, (2-Oxo-2H-chromen-6-yl)methyl azepane-1-carbodithioate]

inhibition at 10 µM (BRD4 (BD1)): 27.2% | melting point: 135.4 to 136.3 °C | inhibition at 10 µM (BRD4 (BD2)): 19.6%
Structure (SMILES): O=c1ccc2cc(CSC(=S)N3CCOCC3)ccc2o1 [ID-10, (2-Oxo-2H-chromen-6-yl)methyl morpholine-4-carbodithioate]

inhibition at 10 µM (BRD4 (BD1)): 35.5% | melting point: 124.3 to 125.2 °C | inhibition at 10 µM (BRD4 (BD2)): 26.5%
Structure (SMILES): CN1CCN(C(=S)SCc2ccc3oc(=O)ccc3c2)CC1 [ID-12, (2-Oxo-2H-chromen-6-yl)methyl 4-methylpiperazine-1-carbodithioate]
